IC50, EC50 and AC50 data for 6 compounds are collected here from ChEMBL document CHEMBL1201862, “PubChem BioAssay data set” (2004).

For assay [1], the target named is T1, NADPH oxidase 1 (Homo sapiens, UniProt Q9Y5S8).
T1 sequence (Q9Y5S8 whole entry): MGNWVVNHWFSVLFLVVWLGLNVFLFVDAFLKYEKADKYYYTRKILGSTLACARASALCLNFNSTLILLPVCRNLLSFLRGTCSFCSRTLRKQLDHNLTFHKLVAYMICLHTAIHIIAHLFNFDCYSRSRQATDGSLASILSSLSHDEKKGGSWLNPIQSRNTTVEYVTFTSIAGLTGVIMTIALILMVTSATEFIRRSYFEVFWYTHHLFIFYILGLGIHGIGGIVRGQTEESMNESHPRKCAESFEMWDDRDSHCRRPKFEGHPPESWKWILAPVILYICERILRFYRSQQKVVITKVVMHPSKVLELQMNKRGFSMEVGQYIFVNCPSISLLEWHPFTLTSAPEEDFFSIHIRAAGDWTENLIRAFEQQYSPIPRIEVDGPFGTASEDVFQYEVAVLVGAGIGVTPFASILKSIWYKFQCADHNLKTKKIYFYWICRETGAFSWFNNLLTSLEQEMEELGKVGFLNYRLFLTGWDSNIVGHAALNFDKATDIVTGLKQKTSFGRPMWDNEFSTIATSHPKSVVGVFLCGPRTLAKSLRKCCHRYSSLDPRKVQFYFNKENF
The assay can be described thus: Late-stage luminescence-based cell-based dose response assay to identify inhibitors of NADPH oxidase 1 (NOX1): Synthesized analogs. Format: functional.

The target of assay [2] is T1, NADPH oxidase 1. Put plainly: Luminescence-based cell-based dose response assay to identify inhibitors of NADPH oxidase 1 (NOX1). Format: functional.
A short description of assay [3]: mitochondrial function rescue without frataxin homolog – Friedreich's ataxia, plus single-dose screen, dose response (AID 1465).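 Further: yeast depleted of Yfh1p frataxin homolog grown on glycerol needing respiration; WST-1 tetrazolium dye reduction as measure of cellular dehydrogenase metabolic activity.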 It counts as functional.
Assay [4] can be described thus: reduced cellular PGC1a acetyl-lysine signal – cell-based, cherry-picked samples, dose response (AID 720514).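 Further: potency may reflect raised or lowered acetylation signal.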 It counts as functional.
Assay [5] addresses Sphingosine 1-phosphate receptor 1 (Homo sapiens, UniProt P21453). It counts as functional.
Assay [6] in a line: viability of HCT116 lacking mutant beta-catenin – cell-based, human colon tumor, dose response (AID 1045).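 Further: HCT116 colon tumor cells with beta catenin knocked out; cells exposed to compound for 60 hours.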 It counts as functional.
Assay [7] is described as follows: viability of PTEN-deleted HCT116 cells – cell-based, HCT116 PTEN knockout, dose response (AID 1047).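 Further: HCT116 colon tumor cells with PTEN knocked out; cells exposed to compound for 60 hours before readout; potency for loss of cell viability measured by luminescence.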 Format: functional.
Assay [8] concerns the target Sphingosine 1-phosphate receptor 4 (Homo sapiens, UniProt O95977). Put plainly: Fluorescence dose response cell-based high throughput screening assay for antagonists of the Sphingosine 1-Phosphate Receptor 4 (S1P4). [Related pubchem assays: 1524 (Confirmation in triplicates.), 1510 (Primary screen.)]. Format: functional.
Assay [9] has as its target T2, Microphthalmia-associated transcription factor (Homo sapiens, UniProt O75030).
T2 sequence (O75030 whole entry): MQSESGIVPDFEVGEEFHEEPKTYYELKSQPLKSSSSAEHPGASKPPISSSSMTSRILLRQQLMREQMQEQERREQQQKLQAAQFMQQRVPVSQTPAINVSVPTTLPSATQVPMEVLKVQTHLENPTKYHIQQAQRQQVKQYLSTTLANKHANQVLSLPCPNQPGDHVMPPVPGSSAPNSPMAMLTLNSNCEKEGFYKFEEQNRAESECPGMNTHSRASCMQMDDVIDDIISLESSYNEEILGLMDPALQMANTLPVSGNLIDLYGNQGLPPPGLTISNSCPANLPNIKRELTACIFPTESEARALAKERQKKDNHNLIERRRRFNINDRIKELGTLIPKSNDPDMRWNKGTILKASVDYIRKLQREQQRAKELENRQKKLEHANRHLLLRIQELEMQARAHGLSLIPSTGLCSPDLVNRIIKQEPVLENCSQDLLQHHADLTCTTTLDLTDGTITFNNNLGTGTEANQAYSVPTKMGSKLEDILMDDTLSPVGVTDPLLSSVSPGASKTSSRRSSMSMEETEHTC
Put plainly: reducers of TRPM1 reporter luminescence, concentration series – cell-based, SK-MEL-5, cherry-picked, set 3, MITF inhibitor project, dose response (AID 493073).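 Further: SK-MEL-5 melanoma cells with luciferase driven by the MITF target TRPM1 promoter.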 Format: functional.

Another assay deals with Bcl-2-like protein 1 (Homo sapiens, UniProt Q07817). The assay can be described thus: blockers of BCLXL peptide binding – biochemical, fluorescence polarization, 1536-well, selectivity assay for MCL1 inhibitor project, dose response (AID 2218). A general note: In fluorescence polarisation assays a small probe gives low polarisation when free and higher when bound to something large.

Assay [10] addresses Induced myeloid leukemia cell differentiation protein Mcl-1 (Homo sapiens, UniProt Q07820). The assay can be described thus: blockers of MCL1 binding to BIM peptide – biochemical, fluorescence polarization, BIM-BH3 peptide, 1536-well, dose response (AID 2217).
In another assay the target is T3, Insulin-degrading enzyme (Homo sapiens, UniProt P14735).
T3 sequence (P14735 whole entry): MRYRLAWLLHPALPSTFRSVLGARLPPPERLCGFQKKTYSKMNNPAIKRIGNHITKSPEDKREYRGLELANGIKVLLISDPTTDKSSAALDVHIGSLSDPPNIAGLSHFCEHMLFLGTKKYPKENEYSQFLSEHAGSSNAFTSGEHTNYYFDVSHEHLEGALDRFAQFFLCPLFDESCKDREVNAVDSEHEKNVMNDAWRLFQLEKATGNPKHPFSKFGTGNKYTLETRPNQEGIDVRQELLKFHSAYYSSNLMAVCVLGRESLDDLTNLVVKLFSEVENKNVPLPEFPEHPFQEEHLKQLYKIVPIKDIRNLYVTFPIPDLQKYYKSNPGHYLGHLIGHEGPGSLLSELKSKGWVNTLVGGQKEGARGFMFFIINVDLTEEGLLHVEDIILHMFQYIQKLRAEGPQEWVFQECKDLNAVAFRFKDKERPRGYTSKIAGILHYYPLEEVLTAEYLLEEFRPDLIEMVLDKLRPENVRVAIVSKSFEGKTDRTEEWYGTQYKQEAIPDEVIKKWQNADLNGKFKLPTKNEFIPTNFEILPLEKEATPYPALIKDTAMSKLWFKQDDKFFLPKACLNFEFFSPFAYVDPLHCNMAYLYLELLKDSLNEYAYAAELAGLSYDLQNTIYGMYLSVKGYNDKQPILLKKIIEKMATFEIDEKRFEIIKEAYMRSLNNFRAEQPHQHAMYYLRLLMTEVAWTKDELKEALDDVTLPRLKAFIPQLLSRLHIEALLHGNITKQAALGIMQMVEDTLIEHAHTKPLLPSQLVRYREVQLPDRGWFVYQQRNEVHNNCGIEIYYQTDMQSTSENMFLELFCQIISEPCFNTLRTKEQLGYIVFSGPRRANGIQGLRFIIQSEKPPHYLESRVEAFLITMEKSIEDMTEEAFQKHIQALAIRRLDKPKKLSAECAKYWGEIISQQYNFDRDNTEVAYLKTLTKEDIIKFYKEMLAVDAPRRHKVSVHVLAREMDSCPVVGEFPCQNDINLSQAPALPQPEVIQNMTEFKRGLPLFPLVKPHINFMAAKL
Put plainly: Dose Response: Fluorescence polarization-based cell-based high throughput dose response assay for inhibitors of insulin-degrading enzyme (IDE). [Related pubchem assays: 434962 (Primary screen (IDE inhibitors in singlicate)), 449730 (Counterscreen (Cytotoxicity in triplicate)), 435028 (Confirmation (IDE inhibitors in triplicate)), 434984 (Summary …. Format: functional.

A short description of assay [11]: Counterscreen for IDE inhibitors: Luminescence-based cell-based high throughput dose response assay to identify compounds that are cytotoxic to HEK cells. [Related pubchem assays: 434962 (Primary screen (IDE inhibitors in singlicate)), 449730 (Counterscreen (Cytotoxicity in triplicate)), 435028 (Confirmation (IDE inhibitors in triplicate)) …. Format: functional. Conditions: HEK293. In general terms: Counterscreens check selectivity or assay interference.

The target in assay [12] is T4, DNA repair protein RAD52 homolog (Homo sapiens, UniProt P43351).
T4 sequence (P43351 whole entry): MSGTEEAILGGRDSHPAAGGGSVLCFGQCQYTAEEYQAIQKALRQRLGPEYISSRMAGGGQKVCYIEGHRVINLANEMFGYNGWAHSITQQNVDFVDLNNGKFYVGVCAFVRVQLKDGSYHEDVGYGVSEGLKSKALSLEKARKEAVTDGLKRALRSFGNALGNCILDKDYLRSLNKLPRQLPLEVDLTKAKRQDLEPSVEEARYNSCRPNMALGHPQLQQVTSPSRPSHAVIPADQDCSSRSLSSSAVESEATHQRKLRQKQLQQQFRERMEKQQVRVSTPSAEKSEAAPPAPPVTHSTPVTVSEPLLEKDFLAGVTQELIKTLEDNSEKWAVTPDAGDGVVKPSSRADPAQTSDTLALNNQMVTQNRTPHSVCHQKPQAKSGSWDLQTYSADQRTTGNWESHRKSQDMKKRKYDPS
Format: functional, biochemical.

The target of the next assay is Aspartyl aminopeptidase (Plasmodium falciparum 3D7, UniProt Q8I2J3). The assay can be described thus: Counterscreen for inhibitors of M1 and M17 aminopeptidases: QFRET-based biochemical high throughput dose response assay for inhibitors of the Plasmodium falciparum M18 Aspartyl Aminopeptidase (PFM18AAP). [Related PubChem assays: 1619 (Screening assay (M17LAP inhibitors).), 1445 (Screening assay (M1AAP inhibitors).)].

In a further assay the target is Procathepsin L (Homo sapiens, UniProt P07711). The assay can be described thus: CTSL1 protease inhibition – biochemical, QFRET, 1536-well, counter-screen for M1/M17 aminopeptidase inhibitor project, dose response (AID 2214).
A further assay deals with T5, Leucine aminopeptidase (Plasmodium falciparum 3D7, UniProt Q8IL11).
T5 sequence (Q8IL11 whole entry): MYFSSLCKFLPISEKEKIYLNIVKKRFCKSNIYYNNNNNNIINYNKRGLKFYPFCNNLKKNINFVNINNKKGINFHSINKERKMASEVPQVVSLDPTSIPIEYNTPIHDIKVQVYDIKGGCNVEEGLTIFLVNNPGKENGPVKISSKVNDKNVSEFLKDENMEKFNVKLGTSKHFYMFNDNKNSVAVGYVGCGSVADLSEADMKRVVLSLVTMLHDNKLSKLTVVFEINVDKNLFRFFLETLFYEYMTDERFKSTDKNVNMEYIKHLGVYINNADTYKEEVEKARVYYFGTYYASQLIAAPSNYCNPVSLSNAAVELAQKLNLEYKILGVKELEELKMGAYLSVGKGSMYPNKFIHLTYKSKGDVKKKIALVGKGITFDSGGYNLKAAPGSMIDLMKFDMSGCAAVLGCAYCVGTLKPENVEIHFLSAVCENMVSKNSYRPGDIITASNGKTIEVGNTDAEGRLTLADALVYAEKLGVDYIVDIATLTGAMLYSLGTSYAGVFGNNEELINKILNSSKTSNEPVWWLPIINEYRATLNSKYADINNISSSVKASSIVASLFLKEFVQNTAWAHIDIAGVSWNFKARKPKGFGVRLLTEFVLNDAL
Put plainly: P. falciparum M17LAP inhibitors, primary screen, biochemical, fluorogenic H-Leu-NHMec substrate, 1536-well (AID 1619). Format: functional.

By IC50 is commonly meant the point on the concentration scale where inhibition reaches its midpoint. As a reminder, the EC50 is the midpoint of the concentration-response curve. A word on the AC50: it is the concentration giving half of the maximal activity seen.

Activity calls are given as the source filed them.

Chain of Bcl-2-like protein 1 (Q07817 whole entry): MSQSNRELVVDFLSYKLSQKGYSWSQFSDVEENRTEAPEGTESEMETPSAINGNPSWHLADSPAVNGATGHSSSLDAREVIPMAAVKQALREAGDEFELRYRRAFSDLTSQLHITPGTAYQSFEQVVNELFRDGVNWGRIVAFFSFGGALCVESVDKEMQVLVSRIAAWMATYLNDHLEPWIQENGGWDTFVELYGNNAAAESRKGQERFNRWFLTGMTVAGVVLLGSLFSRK
Chain of Aspartyl aminopeptidase (Q8I2J3 whole entry): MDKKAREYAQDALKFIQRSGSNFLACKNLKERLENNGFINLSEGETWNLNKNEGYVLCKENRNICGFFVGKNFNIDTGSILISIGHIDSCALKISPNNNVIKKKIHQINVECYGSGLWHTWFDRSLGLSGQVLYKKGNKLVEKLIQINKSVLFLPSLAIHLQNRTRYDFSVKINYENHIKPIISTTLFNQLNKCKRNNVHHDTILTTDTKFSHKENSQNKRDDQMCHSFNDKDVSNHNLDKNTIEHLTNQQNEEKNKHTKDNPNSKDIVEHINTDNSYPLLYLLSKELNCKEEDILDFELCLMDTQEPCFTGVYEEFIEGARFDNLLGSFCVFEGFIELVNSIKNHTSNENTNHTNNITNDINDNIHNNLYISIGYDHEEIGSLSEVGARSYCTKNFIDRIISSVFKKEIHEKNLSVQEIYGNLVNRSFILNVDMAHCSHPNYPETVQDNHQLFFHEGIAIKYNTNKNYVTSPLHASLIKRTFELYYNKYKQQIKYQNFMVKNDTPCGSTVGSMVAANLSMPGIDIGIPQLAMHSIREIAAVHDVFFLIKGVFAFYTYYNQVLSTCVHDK
Chain of Procathepsin L (P07711 whole entry): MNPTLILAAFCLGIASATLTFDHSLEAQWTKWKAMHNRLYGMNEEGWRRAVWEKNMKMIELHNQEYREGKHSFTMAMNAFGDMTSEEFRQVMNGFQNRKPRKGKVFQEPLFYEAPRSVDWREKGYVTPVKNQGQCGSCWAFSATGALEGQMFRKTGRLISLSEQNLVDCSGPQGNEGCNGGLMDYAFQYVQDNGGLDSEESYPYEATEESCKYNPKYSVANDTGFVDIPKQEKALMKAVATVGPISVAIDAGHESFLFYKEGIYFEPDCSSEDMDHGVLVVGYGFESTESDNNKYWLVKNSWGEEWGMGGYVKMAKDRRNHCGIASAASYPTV
Chain of Sphingosine 1-phosphate receptor 1 (P21453 whole entry): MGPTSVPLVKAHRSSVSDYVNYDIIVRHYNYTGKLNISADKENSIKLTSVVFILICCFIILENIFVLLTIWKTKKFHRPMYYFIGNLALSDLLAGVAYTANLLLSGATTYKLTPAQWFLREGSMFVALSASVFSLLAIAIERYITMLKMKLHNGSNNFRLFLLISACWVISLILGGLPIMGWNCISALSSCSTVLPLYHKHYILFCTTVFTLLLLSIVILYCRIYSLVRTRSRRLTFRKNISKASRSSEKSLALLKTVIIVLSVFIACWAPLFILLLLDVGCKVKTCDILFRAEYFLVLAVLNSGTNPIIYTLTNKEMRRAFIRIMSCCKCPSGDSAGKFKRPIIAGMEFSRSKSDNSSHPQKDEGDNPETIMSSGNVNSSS
Chain of Sphingosine 1-phosphate receptor 4 (O95977 whole entry): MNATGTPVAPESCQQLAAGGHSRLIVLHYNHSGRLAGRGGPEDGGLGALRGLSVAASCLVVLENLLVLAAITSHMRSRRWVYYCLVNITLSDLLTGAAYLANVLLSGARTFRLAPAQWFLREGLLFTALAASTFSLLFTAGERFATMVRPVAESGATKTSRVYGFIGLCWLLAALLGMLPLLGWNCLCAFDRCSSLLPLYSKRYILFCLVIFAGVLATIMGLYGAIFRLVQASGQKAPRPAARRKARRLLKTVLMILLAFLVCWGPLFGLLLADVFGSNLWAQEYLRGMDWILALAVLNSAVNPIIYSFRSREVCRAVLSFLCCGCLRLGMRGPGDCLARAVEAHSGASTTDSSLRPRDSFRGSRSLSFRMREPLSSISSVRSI
Chain of Induced myeloid leukemia cell differentiation protein Mcl-1 (Q07820 whole entry): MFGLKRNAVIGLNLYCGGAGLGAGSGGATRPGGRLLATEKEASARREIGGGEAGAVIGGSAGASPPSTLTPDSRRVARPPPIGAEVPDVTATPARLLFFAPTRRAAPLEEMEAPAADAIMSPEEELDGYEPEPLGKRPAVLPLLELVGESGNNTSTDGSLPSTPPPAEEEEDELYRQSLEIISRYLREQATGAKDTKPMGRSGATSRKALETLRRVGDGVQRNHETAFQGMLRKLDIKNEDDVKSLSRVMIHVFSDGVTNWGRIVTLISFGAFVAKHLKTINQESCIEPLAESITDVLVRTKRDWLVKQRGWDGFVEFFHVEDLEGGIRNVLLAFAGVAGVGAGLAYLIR

As to `COc1ccc2c(c1)S(=O)(=O)c1ccccc1N2`, the IC50 against NADPH oxidase 1 [1] was > 50 µM (not active); at NADPH oxidase 1 [2] it was > 20 µM (not active).

For the compound `CCN(CC)c1ccc2cc(C(N)=O)c(=N)oc2c1`, the EC50 in [3] was > 100 µM (active).

Take `Cc1ccc(C)c(C(=O)Cn2ncc(Cl)c(Cl)c2=O)c1`: the results for the AC50 in [4] and in [9] were 8.4 µM (active) and 14.5 µM (active), respectively. In addition, the IC50 in [5] was 12.1 µM (not active); in [8] it was 2.99 µM (active). The values for the EC50 in assay [6] and in assay [7] were 2.35 µM (active) and 3.56 µM (active), respectively.

As for `Cc1ccc(-c2csc3ncn(CC#N)c(=O)c23)cc1C`, the IC50 (on Bcl-2-like protein 1; in [10]) was > 109 µM (not active) in each case.

In the case of `CCOC(=O)c1c(C)n(Cc2ccccc2)c2ccc(OCC(O)CNC(C)(C)C)cc12` (configuration not stated), the IC50 against Insulin-degrading enzyme is > 55.9 µM (not active); in assay [11], 14.5 µM (not active). The AC50 in [12] is 22 µM (active).

As for `O=C(O)C1CC=CCC1C(=O)Nc1cccc(Cl)c1` (configuration not stated), the IC50 at Aspartyl aminopeptidase is > 73.5 µM (not active); on Procathepsin L, > 59.6 µM (not active); on Leucine aminopeptidase, 6.23 µM (active).
